According to PubChem BioAssay AID256 (DTP/NCI, 2004):
Where “and” joins values, the source holds several entries; their conditions need not be identical. Equal entries are not always repeated. Toxic doses and inconclusive results are not listed. How the source made its calls: active means survival T/C of 150% or more; inactive means T/C below 125% in these data.

System: CD2F1 mice, L1210 leukemia ip, survival T/C
Assay: NCI In Vivo Anticancer Drug Screen. Data for tumor model L1210 Leukemia (intraperitoneal) in CD2F1 (CDF1) mice
Details: higher = longer survival
Outline: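 Ratio T/C, where T is the treated-group value and C the vehicle-dosed control value, from mice implanted with a transplantable tumor.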

[1] = endpoint: mean survival time, dose: 12.5 mg/kg/injection, schedule: Q01DX009 (ip), vehicle: saline with Tween-80
[2] = endpoint: mean survival time, dose: 25.0 mg/kg/injection, schedule: Q01DX009 (ip), vehicle: saline with Tween-80
[3] = endpoint: mean survival time, dose: 50.0 mg/kg/injection, schedule: Q01DX009 (ip), vehicle: saline with Tween-80

Measured: T/C

ClCCN(Cc1ccccc1)Cc1ccccc1
inactive: endpoint: mean survival time, dose: 3.13 mg/kg/injection, schedule: Q01DX009 (ip), vehicle: saline with Tween-80 100 % of control | endpoint: mean survival time, dose: 6.25 mg/kg/injection, schedule: Q01DX009 (ip), vehicle: saline with Tween-80 102 % of control | [1] 96 % of control

CN(C)c1ccc(N=Nc2ccc(S(=O)(=O)O)cc2)cc1.CN(C)c1ccc(N=Nc2ccc(S(=O)(=O)O)cc2)cc1.[NH-]C1CCCCC1[NH-].[Pt+2]
inactive: endpoint: median survival time, dose: 3.12 mg/kg/injection, schedule: Q04DX003 (ip), vehicle: saline 121 % of control and 107 % of control | endpoint: median survival time, dose: 6.25 mg/kg/injection, schedule: Q04DX003 (ip), vehicle: saline 109 % of control | endpoint: median survival time, dose: 100.0 mg/kg/injection, schedule: Q04DX003 (ip), vehicle: saline 105 % of control | endpoint: median survival time, dose: 200.0 mg/kg/injection, schedule: Q04DX003 (ip), vehicle: saline 116 % of control

CN1C(=O)C(Cl)=C(Cl)C1=O
inactive: endpoint: mean survival time, dose: 1.56 mg/kg/injection, schedule: Q04DX003 (ip), vehicle: saline 103 % of control | endpoint: mean survival time, dose: 3.13 mg/kg/injection, schedule: Q04DX003 (ip), vehicle: saline 101 % of control | endpoint: mean survival time, dose: 6.25 mg/kg/injection, schedule: Q04DX003 (ip), vehicle: saline 101 % of control

O=C1/C(=C/c2ccccc2)CCS(=O)(=O)c2ccccc21
inactive: endpoint: mean survival time, dose: 100.0 mg/kg/injection, schedule: Q01DX001 (ip), vehicle: saline with Tween-80 97 % of control | endpoint: mean survival time, dose: 200.0 mg/kg/injection, schedule: Q01DX001 (ip), vehicle: saline with Tween-80 97 % of control | endpoint: mean survival time, dose: 400.0 mg/kg/injection, schedule: Q01DX001 (ip), vehicle: saline with Tween-80 90 % of control

Oc1ccc(O)c2c1C1(Cl)C(Cl)=C(Cl)C2(Cl)C1(Cl)Cl
inactive: endpoint: mean survival time, dose: 100.0 mg/kg/injection, schedule: Q01DX009 (ip), vehicle: other 95 % of control | endpoint: mean survival time, dose: 200.0 mg/kg/injection, schedule: Q01DX009 (ip), vehicle: other 98 % of control | endpoint: mean survival time, dose: 400.0 mg/kg/injection, schedule: Q01DX009 (ip), vehicle: other 106 % of control

CC12CCCC1=C1CCC3CC(OC(=O)c4ccccc4)CCC3(C)C1CC2 (configuration not stated)
inactive: endpoint: mean survival time, dose: 100.0 mg/kg/injection, schedule: Q04DX003 (ip), vehicle: saline with Tween-80 100 % of control | endpoint: mean survival time, dose: 200.0 mg/kg/injection, schedule: Q04DX003 (ip), vehicle: saline with Tween-80 96 % of control | endpoint: mean survival time, dose: 400.0 mg/kg/injection, schedule: Q04DX003 (ip), vehicle: saline with Tween-80 100 % of control

c1cnc2c(c1)CCCC2
inactive: [1] 95 % of control | [2] 91 % of control | [3] 87 % of control

CCCCCOS(=O)(=O)O
inactive: endpoint: mean survival time, dose: 100.0 mg/kg/injection, schedule: Q01DX001 (ip), vehicle: saline 108 % of control | endpoint: mean survival time, dose: 200.0 mg/kg/injection, schedule: Q01DX001 (ip), vehicle: saline 120 % of control | endpoint: mean survival time, dose: 400.0 mg/kg/injection, schedule: Q01DX001 (ip), vehicle: saline 102 % of control

CC(=O)Nc1ccc(/C=N/NC(=O)CNC(=O)Nc2cccc([N+](=O)[O-])c2)cc1
inactive: [1] 87 % of control | [2] 91 % of control | [3] 91 % of control | endpoint: mean survival time, dose: 100.0 mg/kg/injection, schedule: Q01DX009 (ip), vehicle: saline with Tween-80 88 % of control

COc1ccc(OC)c(-c2cn(C3CC(O)C(CO)O3)c(=O)[nH]c2=O)c1 (configuration not stated)
inactive: endpoint: median survival time, dose: 12.5 mg/kg/injection, schedule: Q01DX005 (ip), vehicle: water 100 % of control | endpoint: median survival time, dose: 25.0 mg/kg/injection, schedule: Q01DX005 (ip), vehicle: water 102 % of control | endpoint: median survival time, dose: 50.0 mg/kg/injection, schedule: Q01DX005 (ip), vehicle: water 97 % of control | endpoint: median survival time, dose: 100.0 mg/kg/injection, schedule: Q01DX005 (ip), vehicle: water 102 % of control | endpoint: median survival time, dose: 200.0 mg/kg/injection, schedule: Q01DX005 (ip), vehicle: water 98 % of control

Nc1cc(Cl)c([N+](=O)[O-])cc1O
inactive: endpoint: mean survival time, dose: 50.0 mg/kg/injection, schedule: Q01DX009 (ip), vehicle: Klucel (hydroxypropylcellulose) (HPC) 91 % of control | endpoint: mean survival time, dose: 100.0 mg/kg/injection, schedule: Q01DX009 (ip), vehicle: Klucel (hydroxypropylcellulose) (HPC) 94 % of control | endpoint: mean survival time, dose: 200.0 mg/kg/injection, schedule: Q01DX009 (ip), vehicle: Klucel (hydroxypropylcellulose) (HPC) 94 % of control
